From PubChem BioAssay (NCI)
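Following 48 hours of exposure in 96-well plates, responses at five concentrations were used to interpolate endpoints linearly. GI50 marks 50% less growth. TGI is the concentration that stops growth completely.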

Experiments:
Test in all cases: inhibition of tumour cell growth, NCI panel, 48 h
HOP-62 NSCLC = system: HOP-62 NSCLC
ACHN renal = system: ACHN renal
786-0 renal = system: 786-0 renal
IGROV1 ovarian = system: IGROV1 ovarian
SK-MEL-2 melanoma = system: SK-MEL-2 melanoma
K-562 leukemia = system: K-562 leukemia
RXF 393 renal = system: RXF 393 renal
OVCAR-4 ovarian = system: OVCAR-4 ovarian
SR leukemia = system: SR leukemia
MDA-MB-231 breast = system: MDA-MB-231 breast

## O=C(Nc1c(-c2nc3ccccc3[nH]2)sc(=S)n1-c1ccccc1)c1ccccc1
HOP-62 NSCLC
  TGI: > 100 µM
ACHN renal
  TGI: > 100 µM
786-0 renal
  TGI: > 100 µM
IGROV1 ovarian
  TGI: > 100 µM
SK-MEL-2 melanoma
  TGI: > 100 µM
K-562 leukemia
  TGI: > 100 µM
RXF 393 renal
  TGI: > 100 µM

## O=C(CCC(=O)Nc1ccc(Cl)cc1)CC(=O)c1ccc(F)cc1
HOP-62 NSCLC
  TGI: > 100 µM
ACHN renal
  TGI: > 100 µM
OVCAR-4 ovarian
  TGI: > 100 µM
786-0 renal
  TGI: > 100 µM
IGROV1 ovarian
  TGI: > 100 µM
SR leukemia
  TGI: > 100 µM
SK-MEL-2 melanoma
  TGI: > 100 µM
K-562 leukemia
  TGI: > 100 µM

## CCC[CH2][Sn]([CH2]CCC)([O]C(=O)c1cccc(F)c1)[O]C(=O)c1cccc(F)c1
HOP-62 NSCLC
  GI50: 1.91 µM
  TGI: 3.38 µM
ACHN renal
  GI50: 1.3 µM
  TGI: 2.59 µM
OVCAR-4 ovarian
  GI50: 2.05 µM
  TGI: 3.83 µM
786-0 renal
  GI50: 1.19 µM
  TGI: 2.49 µM
IGROV1 ovarian
  GI50: 1.43 µM
  TGI: 2.93 µM
SK-MEL-2 melanoma
  GI50: 0.851 µM
  TGI: 2.1 µM
K-562 leukemia
  GI50: 0.298 µM
  TGI: 1.81 µM
RXF 393 renal
  GI50: 0.185 µM
  TGI: 0.758 µM

## Cc1ccc(C)c(NC(=O)c2cc(-c3ccc([N+](=O)[O-])cc3)nc(N)n2)c1
HOP-62 NSCLC
  TGI: > 100 µM
ACHN renal
  TGI: > 100 µM
OVCAR-4 ovarian
  TGI: > 100 µM
786-0 renal
  TGI: > 100 µM
IGROV1 ovarian
  TGI: > 100 µM
SR leukemia
  TGI: > 100 µM
SK-MEL-2 melanoma
  TGI: > 100 µM
K-562 leukemia
  TGI: > 100 µM
RXF 393 renal
  TGI: > 100 µM

## CCCN(CCC)c1ccc(CO)c(C)c1
HOP-62 NSCLC
  GI50: > 100 µM
  TGI: > 100 µM
ACHN renal
  GI50: 81 µM
  TGI: > 100 µM
OVCAR-4 ovarian
  GI50: 11.3 µM
  TGI: 25.3 µM
MDA-MB-231 breast
  GI50: 77.4 µM
  TGI: > 100 µM
786-0 renal
  GI50: > 100 µM
  TGI: > 100 µM
IGROV1 ovarian
  GI50: 57 µM
  TGI: > 100 µM
SK-MEL-2 melanoma
  GI50: 25.7 µM
  TGI: 78 µM
K-562 leukemia
  GI50: 27.4 µM
  TGI: > 100 µM
RXF 393 renal
  GI50: 22.2 µM
  TGI: > 100 µM

## O=c1cc(Cl)nc[nH]1
HOP-62 NSCLC
  TGI: > 100 µM
ACHN renal
  TGI: > 100 µM
OVCAR-4 ovarian
  TGI: > 100 µM
786-0 renal
  TGI: > 100 µM
IGROV1 ovarian
  TGI: > 100 µM
SK-MEL-2 melanoma
  TGI: > 100 µM
K-562 leukemia
  TGI: > 100 µM

## CC(=O)OC1CCn2nnc(COC(=O)NC(C)C)c21 (stereo not drawn)
ACHN renal
  TGI: > 100 µM
OVCAR-4 ovarian
  TGI: > 100 µM
786-0 renal
  TGI: > 100 µM
IGROV1 ovarian
  TGI: > 100 µM
SR leukemia
  TGI: > 100 µM
SK-MEL-2 melanoma
  TGI: > 100 µM
K-562 leukemia
  TGI: > 100 µM
RXF 393 renal
  TGI: > 100 µM

## CC(c1ccc(Br)cc1)C(C(=O)O)C(=O)O (stereo not drawn)
HOP-62 NSCLC
  TGI: > 100 µM
ACHN renal
  TGI: > 100 µM
OVCAR-4 ovarian
  TGI: > 100 µM
786-0 renal
  TGI: > 100 µM
IGROV1 ovarian
  TGI: > 100 µM
SR leukemia
  TGI: > 100 µM
SK-MEL-2 melanoma
  TGI: > 100 µM
K-562 leukemia
  TGI: > 100 µM
RXF 393 renal
  TGI: > 100 µM

## CCCNCc1nc2ccc(Br)cc2c(=O)n1CCC
HOP-62 NSCLC
  TGI: 36.9 µM
ACHN renal
  TGI: 29.6 µM
OVCAR-4 ovarian
  TGI: 27.7 µM
786-0 renal
  TGI: 29.5 µM
IGROV1 ovarian
  TGI: 29.7 µM
SR leukemia
  TGI: > 100 µM
SK-MEL-2 melanoma
  TGI: 25.2 µM
K-562 leukemia
  TGI: > 100 µM
RXF 393 renal
  TGI: 29.1 µM

## O=c1/c(=C/c2ccc(Cl)cc2Cl)sc2nc3ccccc3n12
HOP-62 NSCLC
  TGI: > 100 µM
ACHN renal
  TGI: > 100 µM
OVCAR-4 ovarian
  TGI: > 100 µM
786-0 renal
  TGI: > 100 µM
IGROV1 ovarian
  TGI: > 100 µM
SK-MEL-2 melanoma
  TGI: > 100 µM
K-562 leukemia
  TGI: > 100 µM
RXF 393 renal
  TGI: > 100 µM

## O=c1c2ccc3cccc4c(=O)cc(c5ccccc15)-c2c34
HOP-62 NSCLC
  TGI: > 100 µM
ACHN renal
  TGI: > 100 µM
OVCAR-4 ovarian
  TGI: > 100 µM
786-0 renal
  TGI: > 100 µM
IGROV1 ovarian
  TGI: > 100 µM
SR leukemia
  TGI: > 100 µM
SK-MEL-2 melanoma
  TGI: > 100 µM
K-562 leukemia
  TGI: > 100 µM
RXF 393 renal
  TGI: > 100 µM

## Cc1ccccc1C(=O)Oc1ccc(Oc2ccccc2)cc1
HOP-62 NSCLC
  TGI: > 100 µM
ACHN renal
  TGI: > 100 µM
OVCAR-4 ovarian
  TGI: > 100 µM
786-0 renal
  TGI: > 100 µM
IGROV1 ovarian
  TGI: > 100 µM
SK-MEL-2 melanoma
  TGI: > 100 µM
K-562 leukemia
  TGI: > 100 µM
RXF 393 renal
  TGI: > 100 µM

## Cc1cc(NS(=O)(=O)c2ccc(NC(=O)c3cccc4c(N)c5ccccc5nc34)cc2)no1
HOP-62 NSCLC
  TGI: 86.9 µM
ACHN renal
  TGI: 46.6 µM
OVCAR-4 ovarian
  TGI: 70.5 µM
786-0 renal
  TGI: 33.7 µM
IGROV1 ovarian
  TGI: 59.3 µM
SK-MEL-2 melanoma
  TGI: 37.2 µM
K-562 leukemia
  TGI: > 100 µM
RXF 393 renal
  TGI: 31.9 µM

## CC(C)C(=O)N[C@@H](C)C(=O)N(Cc1ccc2ccccc2c1)N=O
HOP-62 NSCLC
  TGI: > 100 µM
ACHN renal
  TGI: > 100 µM
OVCAR-4 ovarian
  TGI: > 100 µM
786-0 renal
  TGI: > 100 µM
IGROV1 ovarian
  TGI: > 100 µM
SK-MEL-2 melanoma
  TGI: > 100 µM
K-562 leukemia
  TGI: > 100 µM

## N=C(c1ccccc1)N(O)C1CCCCC1
HOP-62 NSCLC
  TGI: > 100 µM
OVCAR-4 ovarian
  TGI: > 100 µM
786-0 renal
  TGI: > 100 µM
SR leukemia
  TGI: > 100 µM
SK-MEL-2 melanoma
  TGI: > 100 µM
RXF 393 renal
  TGI: > 100 µM

## C=C1CC(CCCl)(c2ccccc2)OC1=O (stereo not drawn)
HOP-62 NSCLC
  TGI: > 100 µM
ACHN renal
  TGI: > 56.3 µM
OVCAR-4 ovarian
  TGI: > 100 µM
786-0 renal
  TGI: 31.7 µM
IGROV1 ovarian
  TGI: > 100 µM
SR leukemia
  TGI: 52.6 µM
SK-MEL-2 melanoma
  TGI: > 100 µM
K-562 leukemia
  TGI: > 96.7 µM
RXF 393 renal
  TGI: 47.7 µM

## O=C1Nc2ccccc2C1Cc1ccccc1 (stereo not drawn)
HOP-62 NSCLC
  TGI: > 100 µM
ACHN renal
  TGI: > 100 µM
OVCAR-4 ovarian
  TGI: > 100 µM
786-0 renal
  TGI: > 100 µM
IGROV1 ovarian
  TGI: > 100 µM
SR leukemia
  TGI: > 100 µM
SK-MEL-2 melanoma
  TGI: > 100 µM
K-562 leukemia
  TGI: > 100 µM

## CC1=CC(C)(C)N=C2SC(c3ccc(Cl)cc3)=NN12
HOP-62 NSCLC
  TGI: > 100 µM
ACHN renal
  TGI: > 100 µM
OVCAR-4 ovarian
  TGI: > 100 µM
786-0 renal
  TGI: 32.8 µM
IGROV1 ovarian
  TGI: > 100 µM
SK-MEL-2 melanoma
  TGI: > 100 µM
K-562 leukemia
  TGI: > 100 µM

## CN1CCN(c2ccc3c4c(cccc24)C(=O)N(CCN2CCN(CCCN4CCN(CCN5C(=O)c6cccc7c(N8CCN(C)CC8)ccc(c67)C5=O)CC4)CC2)C3=O)CC1
HOP-62 NSCLC
  GI50: 1.49 µM
  TGI: 6.82 µM
ACHN renal
  GI50: 3.13 µM
  TGI: 9.72 µM
OVCAR-4 ovarian
  GI50: 8.01 µM
  TGI: 19.4 µM
MDA-MB-231 breast
  GI50: 6.33 µM
  TGI: 13 µM
786-0 renal
  GI50: 1.79 µM
  TGI: 6.87 µM
RXF 393 renal
  GI50: 5.4 µM
  TGI: 12 µM

## C(=C\c1csnn1)/c1cccnc1
HOP-62 NSCLC
  TGI: > 100 µM
ACHN renal
  TGI: > 100 µM
OVCAR-4 ovarian
  TGI: > 100 µM
786-0 renal
  TGI: > 100 µM
SK-MEL-2 melanoma
  TGI: > 100 µM
K-562 leukemia
  TGI: > 100 µM
RXF 393 renal
  TGI: > 100 µM

## CCCCCCCCCCCC(=O)OCC1OC(n2cc(F)c(=O)[nH]c2=O)C(N)C(OC(=O)CCCCCCCCCCC)C1O (stereo not drawn)
HOP-62 NSCLC
  TGI: > 100 µM
ACHN renal
  TGI: > 100 µM
OVCAR-4 ovarian
  TGI: > 100 µM
786-0 renal
  TGI: > 100 µM
SR leukemia
  TGI: > 100 µM
SK-MEL-2 melanoma
  TGI: > 100 µM
K-562 leukemia
  TGI: > 100 µM
RXF 393 renal
  TGI: > 100 µM

## CC(=O)OC1COC(S[As](C)C)C(OC(C)=O)C1OC(C)=O (stereo not drawn)
HOP-62 NSCLC
  GI50: 2.29 µM
  TGI: 14.9 µM
ACHN renal
  GI50: 0.195 µM
  TGI: 1.52 µM
OVCAR-4 ovarian
  GI50: 2.53 µM
  TGI: 24 µM
MDA-MB-231 breast
  GI50: 0.512 µM
  TGI: 2.86 µM
786-0 renal
  GI50: 0.0811 µM
  TGI: 1.12 µM
IGROV1 ovarian
  GI50: 0.225 µM
  TGI: 1.58 µM
SK-MEL-2 melanoma
  GI50: 0.429 µM
  TGI: 1.99 µM
K-562 leukemia
  GI50: 0.0176 µM
  TGI: 0.0913 µM
RXF 393 renal
  GI50: 0.338 µM
  TGI: 2.9 µM

## COc1ccc2c3c1C(=O)CCC3CO2 (stereo not drawn)
HOP-62 NSCLC
  TGI: > 100 µM
ACHN renal
  TGI: > 100 µM
OVCAR-4 ovarian
  TGI: > 100 µM
786-0 renal
  TGI: > 100 µM
IGROV1 ovarian
  TGI: > 100 µM
SK-MEL-2 melanoma
  TGI: > 100 µM
K-562 leukemia
  TGI: > 100 µM
